Assay results: patent publication US8883841B2, “Oncogenic ras-specific cytotoxic compound and methods of use thereof” (The Board of Regents of the University of Texas System, priority 2005, dated 2014)
Entries after “also recorded” stand apart in the source; their conditions may differ.

Legend:
T29Kt1 cells = details: for IC50 in T29k cells: Table 1, value is the negative log10 of mol/L
K-562 = assay: NCI in-vitro testing, K-562 (Leukemia)
UACC-62 = assay: NCI in-vitro testing, UACC-62 (Melanoma)
SK-MEL-2 = assay: NCI in-vitro testing, SK-MEL-2 (Melanoma)
HL-60(TB) = assay: NCI in-vitro testing, HL-60(TB) (Leukemia)
CAKI-1 = assay: NCI in-vitro testing, CAKI-1 (Renal Cancer); details: for Percent Growth: CAK1-1
HS 578T = assay: NCI in-vitro testing, HS 578T (Breast Cancer)
OVCAR-3 = assay: NCI in-vitro testing, OVCAR-3 (Ovarian Cancer)
HOP-92 = assay: NCI in-vitro testing, HOP-92 (Non-Small Cell Lung Cancer)
H322 cells = assay: Cell viability, H322 lung cancer cells; assay type: cell-based, human
Ovca429 = assay: Cell viability, Ovca429 ovary cancer cells; assay type: cell-based
[1] = test system: phosphorylated RNA polymerase II and SR proteins; assay: Western blot for phosphorylated RNA polymerase II and SR proteins; assay type: cell-based, human; details: 10 μM (T29Kt1) or 1 μM (H460), 12 h
Procedure: FIGS. 16A and 16B Effect on RNA processing machinary. (FIG. 16A) T29, T29Kt1, and H460 cells were treated with 10 μM Oncrasin-1 (T29 and T29Kt1) or 1 μM Oncrasin-1 (H460). Twelve hours later, cells were harvested for Western blot analysis for phosphorylation of RNA polymerase II and SR proteins. Cells treated with DMSO were used as control (C). (T) cells treated with Oncrasin-1. Arrows indicate reduced phosphorylation of the polymerase II (pPolII) and SR proteins (pSR) (FIG. 16B) In vitro transcription assay with HeLa cell nuclear extracts (Promoega). The assay was performed following manufacturers instructions. The concentrations used are indicated on the top of the panel. DRB was used as positive control for transcription inhibition.
To further test the role of RNA transcription and splicing in Oncrasin-mediated antitumor activity the phosphorylation of the largest subunit of RNA polymerase II and splicing factors were analyzed. T29, T29Kt1 and H460 cells were treated with Oncrasin-1 at an optimal concentration, around IC60 to IC80 for T29Kt1 and H460 cells. Cell lysates were collected 12 h after the treatment and subjected to Western blot analysis with antibodies specific for phosphorylated RNA polymerase If (H5, Covance Research Products, Inc., Berkeley, Calif.) and SR proteins (1H4, Zymed, obtained from Invitrogen, Carlsbad, Calif.).

O=Cc1cn(Cc2cccc(Cl)c2)c2ccccc12 [Oncrasin K027, 1-(3-chlorobenzyl)-1H-indole-3-carbaldehyde]
IC50 in T29k cells (T29Kt1 cells): 6.43 | GI50 (K-562; Homo sapiens, K562): 0.0192 µM | CC50 (K-562; Homo sapiens, K562, read-out: LC50): 54.5 µM | TGI (K-562; K-562): 1.26E−5 Molar | Percent Growth (K-562; K-562, Log10 Concentration −4.0 Molar): −71% | Percent Growth (K-562; K-562, Log10 Concentration −5.0 Molar): 8% | Percent Growth (K-562; K-562, Log10 Concentration −6.0 Molar): 87% | Percent Growth (K-562; K-562, Log10 Concentration −7.0 Molar): 100% | Percent Growth (K-562; K-562, Log10 Concentration −8.0 Molar): 114% | GI50 (UACC-62; Homo sapiens, UACC-62): 0.0451 µM | CC50 (UACC-62; Homo sapiens, UACC-62, read-out: LC50): 11.4 µM | TGI (UACC-62; UACC-62): 8.97E−7 Molar | Percent Growth (UACC-62; UACC-62, Log10 Concentration −4.0 Molar): −94% | Percent Growth (UACC-62; UACC-62, Log10 Concentration −5.0 Molar): −47% | Percent Growth (UACC-62; UACC-62, Log10 Concentration −6.0 Molar): −2% | Percent Growth (UACC-62; UACC-62, Log10 Concentration −7.0 Molar): 35% | Percent Growth (UACC-62; UACC-62, Log10 Concentration −8.0 Molar): 79% | GI50 (SK-MEL-2; Homo sapiens, SK-MEL-2): 15.8 µM | CC50 (SK-MEL-2; Homo sapiens, SK-MEL-2, read-out: LC50): 48.2 µM | TGI (SK-MEL-2; SK-MEL-2): 5.94E−8 Molar | Percent Growth (SK-MEL-2; SK-MEL-2, Log10 Concentration −4.0 Molar): −64% | Percent Growth (SK-MEL-2; SK-MEL-2, Log10 Concentration −5.0 Molar): −20% | Percent Growth (SK-MEL-2; SK-MEL-2, Log10 Concentration −6.0 Molar): 67% | Percent Growth (SK-MEL-2; SK-MEL-2, Log10 Concentration −7.0 Molar): 84% | Percent Growth (SK-MEL-2; SK-MEL-2, Log10 Concentration −8.0 Molar): 98% | TGI (HL-60(TB); HL-60(TB)): 1.28E−5 Molar | Percent Growth (HL-60(TB); HL-60(TB), Log10 Concentration −4.0 Molar): −78% | Percent Growth (HL-60(TB); HL-60(TB), Log10 Concentration −5.0 Molar): 9% | Percent Growth (HL-60(TB); HL-60(TB), Log10 Concentration −6.0 Molar): 89% | Percent Growth (HL-60(TB); HL-60(TB), Log10 Concentration −7.0 Molar): 85% | Percent Growth (HL-60(TB); HL-60(TB), Log10 Concentration −8.0 Molar): 95% | GI50 (HL-60(TB); Homo sapiens, HL-60): 2.1 µM | CC50 (HL-60(TB); Homo sapiens, HL-60, read-out: LC50): 48.1 µM | Percent Growth (CAKI-1; Log10 Concentration −4.0 Molar): 1% | Percent Growth (CAKI-1; Log10 Concentration −5.0 Molar): −47% | Percent Growth (CAKI-1; Log10 Concentration −6.0 Molar): −21% | Percent Growth (CAKI-1; Log10 Concentration −7.0 Molar): −3% | Percent Growth (CAKI-1; Log10 Concentration −8.0 Molar): 1% | GI50 (CAKI-1; Homo sapiens, CAKI-1): < 0.01 µM | CC50 (CAKI-1; Homo sapiens, CAKI-1, read-out: LC50): > 100 µM | TGI (HS 578T; HS 578T): 2.75E−6 Molar | Percent Growth (HS 578T; HS 578T, Log10 Concentration −4.0 Molar): −38% | Percent Growth (HS 578T; HS 578T, Log10 Concentration −5.0 Molar): 30% | Percent Growth (HS 578T; HS 578T, Log10 Concentration −6.0 Molar): 91% | Percent Growth (HS 578T; HS 578T, Log10 Concentration −7.0 Molar): 98% | Percent Growth (HS 578T; HS 578T, Log10 Concentration −8.0 Molar): 105% | GI50 (HS 578T; Homo sapiens, Hs-578T): 4.68 µM | CC50 (HS 578T; Homo sapiens, Hs-578T, read-out: LC50): > 100 µM | GI50 (OVCAR-3; Homo sapiens, OVCAR-3): 0.569 µM | CC50 (OVCAR-3; Homo sapiens, OVCAR-3, read-out: LC50): 69.1 µM | TGI (OVCAR-3; OVCAR-3): 1.03E−5 Molar | Percent Growth (OVCAR-3; OVCAR-3, Log10 Concentration −4.0 Molar): −60% | Percent Growth (OVCAR-3; OVCAR-3, Log10 Concentration −5.0 Molar): 1% | Percent Growth (OVCAR-3; OVCAR-3, Log10 Concentration −6.0 Molar): 41% | Percent Growth (OVCAR-3; OVCAR-3, Log10 Concentration −7.0 Molar): 77% | Percent Growth (OVCAR-3; OVCAR-3, Log10 Concentration −8.0 Molar): 95% | Percent Growth (HOP-92; HOP-92, Log10 Concentration −4.0 Molar): −60% | Percent Growth (HOP-92; HOP-92, Log10 Concentration −5.0 Molar): 34% | Percent Growth (HOP-92; HOP-92, Log10 Concentration −6.0 Molar): 89% | Percent Growth (HOP-92; HOP-92, Log10 Concentration −7.0 Molar): 81% | Percent Growth (HOP-92; HOP-92, Log10 Concentration −8.0 Molar): 97% | GI50 (HOP-92; Homo sapiens, HOP-92): 5.17 µM | CC50 (HOP-92; Homo sapiens, HOP-92, read-out: LC50): 77.8 µM

O=Cc1cn(Cc2ccc(Cl)cc2)c2ccccc12 [Oncrasin K001, 1H-Indole-3-carboxaldehyde, 1-[(4-chlorophenyl)methyl]-(9CI)]
IC50 (−LogM) (H322 cells; H322, Lung): 4.5 −LogM | toxicity to H322 cells (H322 cells; at 33 μM (the highest concentration tested), ras wild-type): not toxic | effect on H322 cells (H322 cells; wild-type Ras, listed as Oncrasin-1): minimal effect; also recorded: not effective | IC50 (−LogM) (Ovca429): 4.5 −LogM | phosphorylated RNA polymerase II and certain SR proteins [1]: dramatic suppression | time course of toxicity in T29Kt1 cells (T29Kt1 cells; 33 μM): time-dependent toxicity | concentration that effectively kills T29K cells (T29Kt1 cells; K-ras mutant): 10 µM | IC50 in T29k cells (T29Kt1 cells): 5.6 | IC50 (T29Kt1 cells; read-out: IC50, T29Kt1 cells, dose-dependent cytotoxicity): 2.5 µM | selectivity for T29Kt1 (T29K) cells in dose-response study (T29Kt1 cells; vs T29 and T29Ht1, 0.1 μM to 33 μM): highly selective | toxicity to T29H cells (T29Ht1 cells; at 33 μM (the highest concentration tested)): not toxic | toxicity to T29Ht1 (T29H) cells (T29Ht1 cells; at any of the doses tested (dose response)): not toxic | cytotoxicity in T29Ht1 cells (T29Ht1 cells; up to 100 μM, the highest concentration tested): no detectable cytotoxicity
